Data from BindingDB's records for doi:10.1021/jm960305h (National Institute of Diabetes and Digestive and Kidney …, 1997).

Assay: Binding affinity against sigma receptor using radioligand ([3H](+)-pentazocine) binding assay
In the case of `C[C@@H]1CN(CCCc2ccccc2)[C@@H](C)CN1` [(2S,5R)-2,5-Dimethyl-1-(3-phenyl-propyl)-piperazine], the IC50 is reported as 8.5 nM. Compound `Fc1ccc(C(OCCN2CCN(CCOC(c3ccc(F)cc3)c3ccc(F)cc3)CC2)c2ccc(F)cc2)cc1` [1,4-Bis-{2-[bis-(4-fluoro-phenyl)-methoxy]-ethyl}-piperazine] has an IC50 of over 10000 nM. Compound `c1ccc(CCCN2CCNCC2)cc1` [1-(3-Phenyl-propyl)-piperazine] has an IC50 of 109 nM. `C[C@@H]1CN(CCOC(c2ccccc2)c2ccccc2)[C@@H](C)CN1CCCc1ccccc1` [(2S,5R)-1-(2-Benzhydryloxy-ethyl)-2,5-dimethyl-4-(3-phenyl-propyl)-piperazine] showed an IC50 of 8.6 nM. In the case of `c1ccc(CCCN2CCN(CCCc3ccccc3)CC2)cc1` [1,4-Bis-(3-phenyl-propyl)-piperazine], the IC50 is reported as 0.5 nM.

Assay: as above
Remark: another data set of the same source
`c1ccc(C(OCCN2CCNCC2)c2ccccc2)cc1` [1-(2-Benzhydryloxy-ethyl)-piperazine] showed an IC50 of 1480 nM. `Fc1ccc(C(OCCN2CCNCC2)c2ccc(F)cc2)cc1` [1-{2-[Bis-(4-fluoro-phenyl)-methoxy]-ethyl}-piperazine] showed an IC50 of 965 nM. For `c1ccc(CCCN2CCCCN(CCOC(c3ccccc3)c3ccccc3)CC2)cc1` [1-(2-Benzhydryloxy-ethyl)-4-(3-phenyl-propyl)-[1,4]diazocane], the IC50 was 180 nM. Compound `C[C@@H]1CN(CCOC(c2ccc(F)cc2)c2ccc(F)cc2)[C@@H](C)CN1CCOC(c1ccc(F)cc1)c1ccc(F)cc1` [(2S,5R)-1,4-Bis-{2-[bis-(4-fluoro-phenyl)-methoxy]-ethyl}-2,5-dimethyl-piperazine] has an IC50 of 3640 nM. Work on `CNCCN(C)CCOC(c1ccccc1)c1ccccc1` [N-(2-Benzhydryloxy-ethyl)-N,N'-dimethyl-ethane-1,2-diamine] yielded an IC50 of 231 nM. For `C[C@@H]1CN(CCOC(c2ccccc2)c2ccccc2)[C@@H](C)CN1` [(2S,5R)-1-(2-Benzhydryloxy-ethyl)-2,5-dimethyl-piperazine], the IC50 was 67 nM. `c1ccc(CCCNCCCCNCCOC(c2ccccc2)c2ccccc2)cc1` [N-(2-Benzhydryloxy-ethyl)-N'-(3-phenyl-propyl)-butane-1,4-diamine] showed an IC50 of 1050 nM. In the case of `c1ccc(C(OCCN2CCN(CCOC(c3ccccc3)c3ccccc3)CC2)c2ccccc2)cc1` [1,4-Bis-(2-benzhydryloxy-ethyl)-piperazine], the IC50 is reported as over 10000 nM. `NCCCCNCCOC(c1ccccc1)c1ccccc1` [N*1*-(2-Benzhydryloxy-ethyl)-butane-1,4-diamine] gave an IC50 of over 10000 nM. `c1ccc(CCCNC2CCCCN(CCOC(c3ccccc3)c3ccccc3)C2)cc1` (stereo unspecified) [[1-(2-Benzhydryloxy-ethyl)-azepan-3-yl]-(3-phenyl-propyl)-amine] gave an IC50 of 83 nM. `c1ccc(CCCN2CCCN(CCOC(c3ccccc3)c3ccccc3)CC2)cc1` [1-(2-Benzhydryloxy-ethyl)-4-(3-phenyl-propyl)-[1,4]diazepane] gave an IC50 of 26 nM. For `CN(CCCc1ccccc1)CCN(C)CCOC(c1ccccc1)c1ccccc1` [N-(2-Benzhydryloxy-ethyl)-N,N'-dimethyl-N'-(3-phenyl-propyl)-ethane-1,2-diamine], the IC50 was 34 nM. `C[C@@H]1CN(CCCc2ccccc2)[C@@H](C)CN1CCCc1ccccc1` [(2S,5R)-2,5-Dimethyl-1,4-bis-(3-phenyl-propyl)-piperazine] showed an IC50 of 8.5 nM. `C[C@@H]1CN(CCOC(c2ccccc2)c2ccccc2)[C@@H](C)CN1CCOC(c1ccccc1)c1ccccc1` [(2S,5R)-1,4-Bis-(2-benzhydryloxy-ethyl)-2,5-dimethyl-piperazine] gave an IC50 of 4000 nM. With `c1ccc(CCCN2CCCCC(NCCOC(c3ccccc3)c3ccccc3)C2)cc1` (stereo unspecified) [(2-Benzhydryloxy-ethyl)-[1-(3-phenyl-propyl)-azepan-3-yl]-amine] the IC50 was 78 nM. With `C[C@@H]1CN(CCOC(c2ccc(F)cc2)c2ccc(F)cc2)[C@@H](C)CN1` [(2S,5R)-1-{2-[Bis-(4-fluoro-phenyl)-methoxy]-ethyl}-2,5-dimethyl-piperazine] the IC50 was 65 nM.
